2 molecules from PMC4770715, “LIM kinase inhibitors disrupt mitotic microtubule organization and impair tumor cell proliferation” (Oncotarget, 2015) can be followed below.

Targets include LYN (Homo sapiens, UniProt P07948); DDR2 (Homo sapiens, UniProt Q16832); TAOK2 (Homo sapiens, UniProt Q9UL54); PAK4 (Homo sapiens, UniProt O96013); ULK3 (Homo sapiens, UniProt Q6PHR2); BLK (Homo sapiens, UniProt P51451); EPHB4 (Homo sapiens, UniProt P54760); TBK1 (Homo sapiens, UniProt Q9UHD2); PIK3CB (Homo sapiens, UniProt P42338); BRAF (Homo sapiens, UniProt P15056); CAMKK2 (Homo sapiens, UniProt Q96RR4); CAMK1G (Homo sapiens, UniProt Q96NX5); HUNK (Homo sapiens, UniProt P57058); TAOK3 (Homo sapiens, UniProt Q9H2K8); TGFBR2 (Homo sapiens, UniProt P37173); HIPK2 (Homo sapiens, UniProt Q9H2X6).

Assay in all cases: biochemical
Parameters in all cases: KINOMEscan active-site competition binding, percent of control (100 = no competition)
Details in all cases: competition binding, percent control

For a further assay, the target named is T1, PIP5K2C (Homo sapiens, UniProt Q8TBX8).
T1 construct: gene PIP4K2C
T1 sequence (Q8TBX8 whole entry): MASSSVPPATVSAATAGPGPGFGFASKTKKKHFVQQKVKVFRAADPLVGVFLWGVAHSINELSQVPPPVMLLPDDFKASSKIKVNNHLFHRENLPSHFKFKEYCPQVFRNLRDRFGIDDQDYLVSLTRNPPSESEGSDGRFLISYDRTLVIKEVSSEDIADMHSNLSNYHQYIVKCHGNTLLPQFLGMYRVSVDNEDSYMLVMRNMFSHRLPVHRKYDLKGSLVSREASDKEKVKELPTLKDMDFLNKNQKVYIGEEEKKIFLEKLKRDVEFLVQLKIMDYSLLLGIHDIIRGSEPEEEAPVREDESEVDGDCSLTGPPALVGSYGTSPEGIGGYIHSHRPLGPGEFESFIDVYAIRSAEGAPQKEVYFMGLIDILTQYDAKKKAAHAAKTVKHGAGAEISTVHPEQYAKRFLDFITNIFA

Another assay deals with T2, PIP5K2B (Homo sapiens, UniProt P78356).
T2 construct: gene PIP4K2B

Another assay addresses T3, MRCKA (Homo sapiens, UniProt Q5VT25).
T3 construct: gene CDC42BPA

The target of another assay is T4, MST3 (Homo sapiens, UniProt Q9Y6E0).
T4 construct: gene STK24

For the next assay, the target named is T5, PFTAIRE2 (Homo sapiens, UniProt Q96Q40).
T5 construct: gene CDK15
T5 sequence (Q96Q40 whole entry): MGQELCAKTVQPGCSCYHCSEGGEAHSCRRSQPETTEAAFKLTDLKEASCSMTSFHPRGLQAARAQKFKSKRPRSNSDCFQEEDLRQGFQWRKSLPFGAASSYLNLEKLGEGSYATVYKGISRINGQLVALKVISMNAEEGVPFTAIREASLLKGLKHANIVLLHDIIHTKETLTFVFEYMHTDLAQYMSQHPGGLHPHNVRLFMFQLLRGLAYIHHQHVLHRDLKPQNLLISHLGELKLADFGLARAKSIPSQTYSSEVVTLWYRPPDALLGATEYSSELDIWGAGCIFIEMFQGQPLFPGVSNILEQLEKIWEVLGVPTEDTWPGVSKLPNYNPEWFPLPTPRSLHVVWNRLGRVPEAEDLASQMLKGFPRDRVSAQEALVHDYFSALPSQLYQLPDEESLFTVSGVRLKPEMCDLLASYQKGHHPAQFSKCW

Another assay concerns the target T6, MKK7 (Homo sapiens, UniProt O14733).
T6 construct: gene MAP2K7

Assay [1] deals with T7, RPS6KA4(Kin.Dom.1-N-terminal) (Homo sapiens, UniProt O75676).
T7 construct: Kin.Dom.1-N-terminal
T7 sequence (O75676 whole entry): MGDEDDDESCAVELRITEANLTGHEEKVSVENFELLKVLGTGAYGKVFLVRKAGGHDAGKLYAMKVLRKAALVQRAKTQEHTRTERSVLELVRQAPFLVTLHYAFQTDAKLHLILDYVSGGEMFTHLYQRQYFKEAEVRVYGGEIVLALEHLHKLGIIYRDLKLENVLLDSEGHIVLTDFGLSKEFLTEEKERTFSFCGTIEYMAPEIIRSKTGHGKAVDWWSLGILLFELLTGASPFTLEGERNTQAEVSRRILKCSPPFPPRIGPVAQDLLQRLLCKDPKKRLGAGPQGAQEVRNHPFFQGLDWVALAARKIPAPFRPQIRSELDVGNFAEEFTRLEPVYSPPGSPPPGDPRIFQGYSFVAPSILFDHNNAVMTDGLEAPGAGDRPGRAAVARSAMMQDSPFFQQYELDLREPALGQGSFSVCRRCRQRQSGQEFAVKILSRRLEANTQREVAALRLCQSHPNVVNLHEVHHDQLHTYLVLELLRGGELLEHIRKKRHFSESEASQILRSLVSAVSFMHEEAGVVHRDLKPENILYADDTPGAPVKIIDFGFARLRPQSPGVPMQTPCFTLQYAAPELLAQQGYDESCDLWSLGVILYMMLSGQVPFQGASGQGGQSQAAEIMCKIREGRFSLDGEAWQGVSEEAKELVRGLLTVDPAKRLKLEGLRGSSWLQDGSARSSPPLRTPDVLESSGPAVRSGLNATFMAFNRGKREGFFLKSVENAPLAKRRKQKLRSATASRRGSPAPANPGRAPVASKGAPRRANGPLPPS

Chain of PIK3CB (P42338 whole entry): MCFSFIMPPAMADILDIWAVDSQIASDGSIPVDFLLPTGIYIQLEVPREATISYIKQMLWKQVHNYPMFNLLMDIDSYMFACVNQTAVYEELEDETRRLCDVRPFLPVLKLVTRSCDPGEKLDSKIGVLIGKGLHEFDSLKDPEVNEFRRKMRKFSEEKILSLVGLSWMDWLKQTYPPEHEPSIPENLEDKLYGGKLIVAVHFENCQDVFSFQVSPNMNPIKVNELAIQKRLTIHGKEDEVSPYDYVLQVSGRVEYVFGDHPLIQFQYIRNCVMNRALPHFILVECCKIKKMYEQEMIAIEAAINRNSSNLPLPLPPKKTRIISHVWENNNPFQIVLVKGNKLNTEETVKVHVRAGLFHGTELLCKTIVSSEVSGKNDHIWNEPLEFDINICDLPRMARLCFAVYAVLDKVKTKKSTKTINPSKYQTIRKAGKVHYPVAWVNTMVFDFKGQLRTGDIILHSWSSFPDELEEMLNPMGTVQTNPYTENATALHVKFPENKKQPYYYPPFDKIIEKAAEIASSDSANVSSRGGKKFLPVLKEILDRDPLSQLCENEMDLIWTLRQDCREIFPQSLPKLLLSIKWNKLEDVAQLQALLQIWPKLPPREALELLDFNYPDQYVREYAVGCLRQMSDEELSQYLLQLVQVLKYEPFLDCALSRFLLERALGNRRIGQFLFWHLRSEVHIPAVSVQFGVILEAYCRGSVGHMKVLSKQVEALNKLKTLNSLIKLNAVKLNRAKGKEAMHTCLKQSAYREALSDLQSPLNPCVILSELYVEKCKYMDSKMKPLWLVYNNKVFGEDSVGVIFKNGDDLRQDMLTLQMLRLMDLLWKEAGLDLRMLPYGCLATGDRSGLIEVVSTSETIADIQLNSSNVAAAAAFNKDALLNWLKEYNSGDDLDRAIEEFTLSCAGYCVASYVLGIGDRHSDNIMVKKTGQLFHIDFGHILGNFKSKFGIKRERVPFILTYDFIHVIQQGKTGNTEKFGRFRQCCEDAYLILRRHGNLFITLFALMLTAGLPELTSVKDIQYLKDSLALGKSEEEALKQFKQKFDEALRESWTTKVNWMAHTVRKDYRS
T6 sequence (O14733 whole entry): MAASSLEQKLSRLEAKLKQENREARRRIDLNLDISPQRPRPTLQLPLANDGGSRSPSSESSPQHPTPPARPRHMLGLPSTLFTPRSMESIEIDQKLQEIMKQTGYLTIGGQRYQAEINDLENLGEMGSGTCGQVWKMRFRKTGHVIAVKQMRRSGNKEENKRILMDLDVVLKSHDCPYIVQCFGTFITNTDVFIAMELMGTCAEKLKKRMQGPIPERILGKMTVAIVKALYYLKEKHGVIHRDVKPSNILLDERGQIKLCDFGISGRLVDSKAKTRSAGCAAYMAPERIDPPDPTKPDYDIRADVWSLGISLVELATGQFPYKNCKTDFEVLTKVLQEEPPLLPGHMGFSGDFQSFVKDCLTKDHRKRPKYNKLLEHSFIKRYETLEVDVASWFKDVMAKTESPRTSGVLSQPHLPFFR
T3 sequence (Q5VT25 whole entry): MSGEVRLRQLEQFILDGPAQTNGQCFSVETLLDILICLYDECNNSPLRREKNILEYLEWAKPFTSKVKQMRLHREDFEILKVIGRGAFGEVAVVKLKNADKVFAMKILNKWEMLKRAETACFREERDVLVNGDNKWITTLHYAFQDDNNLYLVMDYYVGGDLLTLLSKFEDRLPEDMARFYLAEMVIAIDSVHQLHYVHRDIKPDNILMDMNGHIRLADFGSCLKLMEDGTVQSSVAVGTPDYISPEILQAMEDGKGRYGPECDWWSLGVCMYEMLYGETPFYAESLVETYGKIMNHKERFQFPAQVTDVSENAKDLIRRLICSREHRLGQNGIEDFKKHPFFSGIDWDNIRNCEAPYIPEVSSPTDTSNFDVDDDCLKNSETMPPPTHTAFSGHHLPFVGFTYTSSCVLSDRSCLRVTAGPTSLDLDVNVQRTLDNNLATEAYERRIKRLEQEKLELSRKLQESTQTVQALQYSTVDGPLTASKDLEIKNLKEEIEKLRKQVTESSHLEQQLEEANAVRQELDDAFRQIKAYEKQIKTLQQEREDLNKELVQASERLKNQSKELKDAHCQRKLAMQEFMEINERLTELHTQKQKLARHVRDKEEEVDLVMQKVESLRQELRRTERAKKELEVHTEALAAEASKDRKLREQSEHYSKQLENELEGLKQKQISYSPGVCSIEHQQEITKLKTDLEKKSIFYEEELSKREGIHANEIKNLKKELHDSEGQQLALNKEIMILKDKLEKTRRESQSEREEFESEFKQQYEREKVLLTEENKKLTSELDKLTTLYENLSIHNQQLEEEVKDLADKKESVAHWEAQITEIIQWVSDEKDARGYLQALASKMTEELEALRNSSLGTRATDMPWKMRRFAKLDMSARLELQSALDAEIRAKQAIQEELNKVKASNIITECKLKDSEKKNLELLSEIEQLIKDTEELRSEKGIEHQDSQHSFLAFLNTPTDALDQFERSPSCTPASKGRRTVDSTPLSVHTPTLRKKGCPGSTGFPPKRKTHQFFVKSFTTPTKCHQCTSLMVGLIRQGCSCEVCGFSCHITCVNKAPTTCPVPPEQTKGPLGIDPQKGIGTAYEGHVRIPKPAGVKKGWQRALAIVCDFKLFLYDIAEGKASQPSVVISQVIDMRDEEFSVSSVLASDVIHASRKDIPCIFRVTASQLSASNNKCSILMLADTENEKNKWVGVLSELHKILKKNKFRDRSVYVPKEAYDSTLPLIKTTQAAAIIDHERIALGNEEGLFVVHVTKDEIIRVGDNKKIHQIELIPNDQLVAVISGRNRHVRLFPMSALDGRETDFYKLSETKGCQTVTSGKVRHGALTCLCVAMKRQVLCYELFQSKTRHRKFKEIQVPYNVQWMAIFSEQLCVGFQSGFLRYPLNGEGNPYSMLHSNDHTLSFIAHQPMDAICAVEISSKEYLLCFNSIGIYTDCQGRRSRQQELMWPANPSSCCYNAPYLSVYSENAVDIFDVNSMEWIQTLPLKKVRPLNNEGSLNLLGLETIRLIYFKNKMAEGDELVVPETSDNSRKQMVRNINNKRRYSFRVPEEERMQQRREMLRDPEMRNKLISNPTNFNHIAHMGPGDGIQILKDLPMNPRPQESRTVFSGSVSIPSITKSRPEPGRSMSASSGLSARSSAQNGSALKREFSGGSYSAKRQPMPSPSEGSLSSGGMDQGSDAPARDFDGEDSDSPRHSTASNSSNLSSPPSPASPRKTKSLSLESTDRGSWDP

Take `COc1ccc(-c2cnccc2-c2cnc(NC(=O)C(C)C)s2)c(C(F)(F)F)c1` [CRT0105446, N-{5-[3-(4-Methoxy-2-trifluoromethyl-phenyl)-pyridin-4-yl]-hiazol-2-yl}-isobutyramide]: the remaining binding at 10 µM is 3% on PIP5K2C; 100% at LYN; 0.4% at DDR2; 76% on TAOK2; 82% on PAK4; 100% at ULK3. The remaining binding at 10 µM is 100% at BLK; 93% on EPHB4; 82% on TBK1; 100% on PIP5K2B; 95% at PIK3CB; 79% at BRAF. Also, the remaining binding at 10 µM turned out to be 95% at CAMKK2; 77% on MRCKA; 72% on MST3; 99% at CAMK1G; 18% on PFTAIRE2; 89% on HUNK. Besides, the remaining binding at 10 µM stood at 97% on MKK7; 96% at TAOK3; 94% on TGFBR2; 100% in assay [1]; 92% at HIPK2.
For the molecule `Cc1ccc(-c2cnccc2-c2cnc(Nc3ccc(O)cc3)s2)c(Cl)c1` [CRT0105950, 4-{5-[3-(2-Chloro-4-methyl-phenyl)-pyridin-4-yl]-thiazol-2-ylamino}-phenol], the remaining binding at 10 µM at PIP5K2C was found to be 2.3%; on LYN it was 26%; at DDR2, 12%; at TAOK2, 21%; on PAK4 it was 79%; at ULK3, 68%. Besides, the remaining binding at 10 µM amounted to 9.2% at BLK; 82% at EPHB4; 52% on TBK1; 44% on PIP5K2B; 80% on PIK3CB; 93% at BRAF. For the same molecule, the remaining binding at 10 µM on CAMKK2 was determined as 43%; at MRCKA, 84%; at MST3 it was 40%; on CAMK1G, 57%; at PFTAIRE2, 18%; on HUNK, 49%. The remaining binding at 10 µM was 38% on MKK7; 28% on TAOK3; 18% at TGFBR2; 14% in assay [1]; 55% on HIPK2.
